From ChEMBL document CHEMBL1201862, “PubChem BioAssay data set” (2004) come the findings set out here.

The nature of experiment [1]: inhibitors of SNCA 5'UTR-driven reporter translation, confirmation, H4 neuroglioma cells, luminescence (AID 1988). The class given is functional, cell-based.
A short description of experiment [2]: cytotoxicity toward DRD oncogenic fibroblasts, dose response, cell-based, non-viral oncogenic, luminescence (AID 1934). The experiment is classed as functional. The conditions noted are these: Homo sapiens.
In experiment [3] the test system is BJ. As to the kind of experiment: cytotoxicity toward BJ-TERT fibroblasts, dose response, cell-based, RAS-independent, luminescence (AID 1933). Conditions: Homo sapiens. The experiment is classed as functional.
Experiment [4] can be described thus: Luminescence Cell-Based Dose Response HTS to Identify Inhibitors of 5'UTR Stem-Loop Driven Prion Protein mRNA Translation in H4 Neuroglioblastoma Cells. [Related pubchem assays: 1827 (Project Summary), 1813 (Primary HTS)]. The class given is functional.
The nature of experiment [5]: inhibitors of firefly luciferase expression or activity, dose response, H4 neuroglioma cells, luminescence (AID 1990). The experiment is classed as functional, cell-based.
For experiment [6], the system named is BJ. As to the kind of experiment: cells. The experiment is classed as functional, cell-based. The conditions noted are these: Homo sapiens.
Experiment [7] has as its target T1, Alkaline phosphatase, tissue-nonspecific isozyme (Homo sapiens, UniProt P05186).
T1 sequence (P05186 whole entry): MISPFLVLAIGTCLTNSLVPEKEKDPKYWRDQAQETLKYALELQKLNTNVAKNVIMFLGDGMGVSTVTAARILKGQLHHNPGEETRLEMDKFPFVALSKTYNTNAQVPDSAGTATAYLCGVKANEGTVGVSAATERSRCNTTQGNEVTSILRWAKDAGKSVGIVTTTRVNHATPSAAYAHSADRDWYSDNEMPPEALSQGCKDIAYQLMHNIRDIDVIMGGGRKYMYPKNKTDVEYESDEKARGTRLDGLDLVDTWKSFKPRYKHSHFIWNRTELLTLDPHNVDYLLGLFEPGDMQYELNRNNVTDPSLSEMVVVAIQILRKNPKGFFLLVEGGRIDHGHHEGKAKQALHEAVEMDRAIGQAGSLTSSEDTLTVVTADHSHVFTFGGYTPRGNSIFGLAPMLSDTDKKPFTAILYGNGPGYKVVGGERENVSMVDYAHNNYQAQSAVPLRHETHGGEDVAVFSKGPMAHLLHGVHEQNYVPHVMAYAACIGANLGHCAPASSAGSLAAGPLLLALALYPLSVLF

Experiment [8] deals with BJ. As to the kind of experiment: cytotoxicity toward BJ-TERT-LT-ST fibroblasts, dose response, cell-based, RAS-independent, luminescence (AID 1935).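 Note: BJ fibroblasts immortalized with TERT plus LT and ST oncogenes.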 The experiment is classed as functional. Conditions: Homo sapiens.
Experiment [9] is described as follows: LGR2 antagonists, dose response, cell-based, HEK293, CRE-luciferase reporter, cherry pick, set 2 (AID 743343).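 Note: transfected cells were stimulated with diluted bursicon conditioned medium after compound addition.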 The class given is functional. A general note: A reporter such as luciferase makes a cellular process visible.
Another experiment has as its system HT-1080. Put plainly: cytotoxicity in HT1080 fibrosarcoma cells, cell-based, fluorescence readout (AID 620). The experiment is classed as functional. Conditions: Homo sapiens.
Experiment [10] is described as follows: HepG2 cell cytotoxicity, dose response, cytotoxicity control, plate reader, cherry-pick, antagonist series (AID 743416). The class given is functional, cell-based.
Experiment [11] is described as follows: A549 cell cytotoxicity, dose response, cytotoxicity control, plate reader, cherry-pick, antagonist series (AID 743412). The class given is functional, cell-based.
Another experiment has as its system HEK293. As to the kind of experiment: inhibitors of LMP1-driven NF-kB reporter, dose response, cell-based, HEK293, luciferase, cherry-pick (AID 588343). The class given is functional. The conditions noted are these: Homo sapiens.
The target in experiment [12] is Luciferin 4-monooxygenase (Photinus pyralis, UniProt P08659). Put plainly: Counter Screen for Luciferase-based Assay Positives. [Related pubchem assays: 620, 618, 411 ]. For orientation: Counterscreens check selectivity or assay interference.
Experiment [13] is described as follows: MC4R antagonists, dose response, counter-screen for LGR2 antagonist project, cell-based, plate reader, cherry pick (AID 743444).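 Note: transfected HEK 293 cells stimulated with alpha-MSH peptide; potency of inhibitors of the alpha-MSH evoked signal.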 The experiment is classed as functional.
Experiment [14] is described as follows: HEK293 cell cytotoxicity, dose response, cytotoxicity control, plate reader, cherry-picked samples (AID 743446). The experiment is classed as functional, cell-based.
Another experiment has as its system Vero. As to the kind of experiment: Vero E6 cell cytotoxicity, SAR follow-up, cytotoxicity control for West Nile virus antiviral project, synthesized analogs (AID 2244). The experiment is classed as functional. The conditions noted are these: Chlorocebus sabaeus.
Another experiment has as its target Cytochrome P450 3A4 (Homo sapiens, UniProt P08684). The conditions noted are these: Potency.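 Note: confirmatory qHTS run detecting inhibitors and substrates of CYP3A4.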
For the next experiment, the target named is Cytochrome P450 2C9 (Homo sapiens, UniProt P11712). The conditions noted are these: Potency.
A further experiment has as its target Cytochrome P450 2D6 (Homo sapiens, UniProt P10635). As to the kind of experiment: qHTS Assay for Inhibitors and Substrates of Cytochrome P450 2D6. [Related pubchem assays: 410 ]. The experiment is classed as ADME. Conditions: read-out: Potency. For orientation: In qHTS, concentration-response curves come from the screen itself.
In a further experiment the target is Cytochrome P450 2C19 (Homo sapiens, UniProt P33261). Put plainly: qHTS Assay for Inhibitors and Substrates of Cytochrome P450 2C19. [Related pubchem assays: 410 ]. The experiment is classed as ADME. The conditions noted are these: read-out: Potency.
Another experiment in a line: cells. The experiment is classed as functional, cell-based.
Experiment [15] can be described thus: inhibitors of SNCA 5'UTR-driven translation, confirmation, luminescence, H4 neuroglioblastoma cells, dose confirmation (AID 2454).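 Note: H4 neuroglioblastoma cells carrying an alpha-synuclein 5'UTR luciferase reporter; potency for inhibition of the luciferase signal.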 The class given is functional, cell-based.
A short description of experiment [16]: luciferase reporter signal reduction – luminescence, H4-C neuroglioblastoma cells, dose response (AID 2458).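 Note: H4 neuroglioblastoma cells stably carrying a luciferase reporter gene fusion.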 The class given is functional, cell-based.
Experiment [17] concerns BJ. Put plainly: cytotoxicity toward Ras-transformed BJeLR fibroblasts, dose response, cell-based, alamar blue fluorescence, cherrypicked samples (AID 2631).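 Note: confirmatory dose-response assay in RAS-dependent BJ fibroblasts engineered with TERT, LT and ST, with cytotoxicity read by fluorescence.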 The experiment is classed as functional. The conditions noted are these: Homo sapiens.
A short description of experiment [18]: Luminescence-based dose response cell-based high throughput screening assay for cytotoxic compounds using the IEC-6 intestinal epithelial cell line. [Related pubchem assays: 1858 (Summary AID.), 1825 (Counterscreen.), 1907 (Confirmation screen.)]. The class given is functional.
The target of experiment [19] is T2, Heat shock factor protein 1 (Mus musculus, UniProt P38532).
T2 sequence (P38532 whole entry): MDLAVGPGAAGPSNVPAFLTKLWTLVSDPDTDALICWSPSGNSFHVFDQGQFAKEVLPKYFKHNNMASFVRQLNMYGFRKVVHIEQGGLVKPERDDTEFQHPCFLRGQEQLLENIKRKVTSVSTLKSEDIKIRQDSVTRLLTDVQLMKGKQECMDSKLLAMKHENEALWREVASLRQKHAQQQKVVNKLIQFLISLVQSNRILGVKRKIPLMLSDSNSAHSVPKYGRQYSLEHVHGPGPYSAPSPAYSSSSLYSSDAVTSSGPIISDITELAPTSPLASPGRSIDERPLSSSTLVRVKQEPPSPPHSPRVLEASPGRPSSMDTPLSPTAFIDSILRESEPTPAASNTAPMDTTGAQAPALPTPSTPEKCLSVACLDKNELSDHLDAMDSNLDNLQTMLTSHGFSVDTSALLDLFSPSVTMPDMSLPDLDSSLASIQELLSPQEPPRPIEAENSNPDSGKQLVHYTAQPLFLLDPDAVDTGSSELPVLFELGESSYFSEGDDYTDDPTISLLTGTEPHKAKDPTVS
As to the kind of experiment: inhibition of MG132-induced HSE-luciferase signal, confirmation, cell-based, NIH3T3, luminescence, dose retest (AID 2382).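 Note: NIH3T3 fibroblasts with HSF1-driven luciferase reporter stressed by proteasome inhibitor MG132; luminescence from HSF1-driven luciferase expression after 8 hours of MG132 stress.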 The experiment is classed as functional.

Experiment [20] can be described thus: control 3'UTR Renilla luciferase suppression, dose response, counter-screen for Shn3 inhibitor project, cell-based, Clone20-Shn3RL, cherry-picked (AID 624133). The class given is functional.
The target of another experiment is T3, Leucine aminopeptidase (Plasmodium falciparum 3D7, UniProt Q8IL11).
T3 sequence (Q8IL11 whole entry): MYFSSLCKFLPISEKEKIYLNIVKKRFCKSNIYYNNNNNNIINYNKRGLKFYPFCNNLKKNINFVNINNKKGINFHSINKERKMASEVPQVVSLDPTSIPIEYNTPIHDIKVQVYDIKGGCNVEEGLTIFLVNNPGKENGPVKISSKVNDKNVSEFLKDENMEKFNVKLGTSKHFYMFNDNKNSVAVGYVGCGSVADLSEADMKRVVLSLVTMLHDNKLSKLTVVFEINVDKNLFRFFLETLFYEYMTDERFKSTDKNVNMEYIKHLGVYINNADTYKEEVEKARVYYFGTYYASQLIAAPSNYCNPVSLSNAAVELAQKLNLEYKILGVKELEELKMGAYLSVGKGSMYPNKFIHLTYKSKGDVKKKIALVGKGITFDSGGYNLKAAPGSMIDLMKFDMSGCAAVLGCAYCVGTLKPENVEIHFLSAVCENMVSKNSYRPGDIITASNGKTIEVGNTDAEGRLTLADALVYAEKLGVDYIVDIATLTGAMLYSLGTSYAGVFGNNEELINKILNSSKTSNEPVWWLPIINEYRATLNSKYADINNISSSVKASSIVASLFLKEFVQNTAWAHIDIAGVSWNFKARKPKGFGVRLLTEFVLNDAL
Put plainly: P. falciparum M17LAP inhibitors, primary screen, biochemical, fluorogenic H-Leu-NHMec substrate, 1536-well (AID 1619). The experiment is classed as functional.

Experiment [21] is described as follows: HepG2 cell cytotoxicity, dose response, cytotoxicity control for Shn3 inhibitor project, CellTiter-Glo, cherry-picked (AID 624134). The class given is functional, cell-based.
The nature of experiment [22]: Shn3 3'UTR reporter inhibitors, dose response, cell-based, Clone20 osteoblasts, firefly luciferase, cherry-picked (AID 624132).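 Note: firefly luciferase luminescence from reporter carrying the Shn3 3'UTR in osteoblasts.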 The class given is functional.

Active and inactive are the calls of the source.

Cytochrome P450 3A4, sequence (P08684 whole entry): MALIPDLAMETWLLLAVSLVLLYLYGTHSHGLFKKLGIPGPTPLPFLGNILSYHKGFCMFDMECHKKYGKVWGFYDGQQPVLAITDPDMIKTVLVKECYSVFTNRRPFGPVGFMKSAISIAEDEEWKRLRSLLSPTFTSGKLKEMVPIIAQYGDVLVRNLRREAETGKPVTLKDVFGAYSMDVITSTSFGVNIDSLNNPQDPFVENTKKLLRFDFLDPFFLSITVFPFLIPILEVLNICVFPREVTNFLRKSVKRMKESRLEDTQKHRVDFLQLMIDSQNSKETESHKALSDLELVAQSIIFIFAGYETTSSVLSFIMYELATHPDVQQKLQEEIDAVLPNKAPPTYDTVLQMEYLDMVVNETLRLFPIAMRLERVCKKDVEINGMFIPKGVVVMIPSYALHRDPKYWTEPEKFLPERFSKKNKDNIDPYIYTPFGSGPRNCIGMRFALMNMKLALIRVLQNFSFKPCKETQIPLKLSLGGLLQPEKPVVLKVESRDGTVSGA
Cytochrome P450 2C9, sequence (P11712 whole entry): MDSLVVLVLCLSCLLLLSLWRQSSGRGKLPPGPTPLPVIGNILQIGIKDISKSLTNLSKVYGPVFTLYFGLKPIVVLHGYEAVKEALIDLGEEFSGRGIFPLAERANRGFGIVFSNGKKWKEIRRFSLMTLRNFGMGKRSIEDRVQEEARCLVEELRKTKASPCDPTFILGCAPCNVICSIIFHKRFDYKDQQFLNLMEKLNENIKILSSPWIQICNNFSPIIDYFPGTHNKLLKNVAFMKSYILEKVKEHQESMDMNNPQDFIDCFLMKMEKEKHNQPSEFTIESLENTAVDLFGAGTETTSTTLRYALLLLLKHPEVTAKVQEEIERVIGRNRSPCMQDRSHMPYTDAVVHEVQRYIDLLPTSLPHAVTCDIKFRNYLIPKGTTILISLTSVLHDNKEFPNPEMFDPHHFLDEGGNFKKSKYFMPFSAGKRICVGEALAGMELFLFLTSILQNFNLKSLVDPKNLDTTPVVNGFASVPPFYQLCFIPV
Luciferin 4-monooxygenase, sequence (P08659 whole entry): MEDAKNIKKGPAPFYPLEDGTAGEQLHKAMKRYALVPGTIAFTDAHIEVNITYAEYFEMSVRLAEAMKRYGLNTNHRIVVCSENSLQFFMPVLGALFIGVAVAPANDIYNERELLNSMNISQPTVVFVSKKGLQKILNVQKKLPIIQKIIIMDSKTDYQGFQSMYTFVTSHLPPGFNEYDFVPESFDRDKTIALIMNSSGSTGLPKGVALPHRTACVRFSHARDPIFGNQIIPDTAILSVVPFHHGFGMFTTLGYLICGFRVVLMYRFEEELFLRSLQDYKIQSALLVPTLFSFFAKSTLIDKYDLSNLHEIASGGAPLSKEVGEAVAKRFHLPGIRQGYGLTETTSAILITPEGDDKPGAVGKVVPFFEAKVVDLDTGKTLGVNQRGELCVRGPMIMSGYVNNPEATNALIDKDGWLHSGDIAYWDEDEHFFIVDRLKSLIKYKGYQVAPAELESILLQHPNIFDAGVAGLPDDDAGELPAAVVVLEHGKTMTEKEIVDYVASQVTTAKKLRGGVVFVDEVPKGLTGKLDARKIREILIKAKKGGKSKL
Cytochrome P450 2D6, sequence (P10635 whole entry): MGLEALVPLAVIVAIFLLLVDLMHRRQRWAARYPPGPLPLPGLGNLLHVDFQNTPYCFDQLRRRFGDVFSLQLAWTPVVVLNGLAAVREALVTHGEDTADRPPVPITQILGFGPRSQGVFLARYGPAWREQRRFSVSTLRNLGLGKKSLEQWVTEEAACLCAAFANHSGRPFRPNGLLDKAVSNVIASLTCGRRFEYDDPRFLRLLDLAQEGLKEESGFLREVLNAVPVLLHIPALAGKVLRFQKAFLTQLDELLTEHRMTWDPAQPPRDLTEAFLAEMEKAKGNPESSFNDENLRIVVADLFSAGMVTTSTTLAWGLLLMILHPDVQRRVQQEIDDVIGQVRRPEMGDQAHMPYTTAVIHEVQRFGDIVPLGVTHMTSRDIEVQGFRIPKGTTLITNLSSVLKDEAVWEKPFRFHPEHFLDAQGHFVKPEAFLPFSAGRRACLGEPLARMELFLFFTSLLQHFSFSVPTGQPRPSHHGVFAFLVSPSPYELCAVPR
Cytochrome P450 2C19, sequence (P33261 whole entry): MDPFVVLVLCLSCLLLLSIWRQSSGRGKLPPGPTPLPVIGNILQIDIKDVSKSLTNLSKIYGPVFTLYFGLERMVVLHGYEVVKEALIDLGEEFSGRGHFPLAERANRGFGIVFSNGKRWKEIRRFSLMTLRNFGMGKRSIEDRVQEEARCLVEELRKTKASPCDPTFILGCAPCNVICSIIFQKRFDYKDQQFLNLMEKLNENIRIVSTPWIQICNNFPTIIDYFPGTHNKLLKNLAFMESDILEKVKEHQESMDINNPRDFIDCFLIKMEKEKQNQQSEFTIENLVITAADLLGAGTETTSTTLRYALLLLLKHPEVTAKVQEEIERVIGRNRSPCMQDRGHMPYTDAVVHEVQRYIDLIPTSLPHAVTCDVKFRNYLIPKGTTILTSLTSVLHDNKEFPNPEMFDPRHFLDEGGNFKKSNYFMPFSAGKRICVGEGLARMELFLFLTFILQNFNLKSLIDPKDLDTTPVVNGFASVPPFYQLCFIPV

As a reminder, the EC50 is the concentration at which the effect is half-maximal. `COc1cccc2sc(Nc3nc4ccc(NC(C)=O)cc4s3)nc12`: the concentration giving a half-maximal response (EC50) in [1] was 10.7 µM (active); in experiment [2], 30 µM (active); with BJ [3] it was 67.8 µM (active); in experiment [4], 12.6 µM (active); in [5] it was > 120 µM (not active); in the experiment on BJ [6], 28.2 µM (active). Moreover, the EC50 is listed as > 100 µM (not active) in experiment [7] and > 150 µM (not active) in the experiment with BJ [8].
In the case of `O=C(Nc1ccc(CN2CCOCC2)cc1)c1cc2ccccn2n1`, the AC50 in experiment [9] is 2.6 µM (active); in experiment [10] it was > 52 µM (inactive); in experiment [11] it was > 52 µM (inactive); in the experiment with HEK293, 3.01 µM (active); in experiment [13], 5.82 µM (active); in [14], 36 µM (active). Moreover, the EC50 is > 50 µM (not active) with HT-1080 and 71.5 µM (active) in [12].
As a reminder, the CC50 is the concentration giving 50% cytotoxicity. For the molecule `O=C(Nc1nc(-c2ccc(Cl)cc2)cs1)c1ccccc1Cl`, the CC50 with Vero was > 40 µM (active).
Consider `COC(=O)NC(/C(C(=O)OC)=C(\C)NCc1ccccc1)c1ccccc1` (configuration not stated), for which the AC50 at Cytochrome P450 3A4 was 3.98 µM (inconclusive); on Cytochrome P450 2C9, 3.16 µM (inconclusive); on Cytochrome P450 2D6, 3.98 µM (inconclusive); at Cytochrome P450 2C19, 0.0079 µM (inconclusive).
In general, IC50 refers to the concentration needed to halve the response being measured. With `Cc1cccc2cc(C#N)c(SCC(=O)N3CC(=O)Nc4ccccc43)nc12`, the EC50 in “cells” is 2.36 µM (active); in experiment [15], 1.42 µM (active); in [1] it was < 0.1 µM (active); in experiment [16] it was 1.59 µM (active); in experiment [2], 0.804 µM (active); with BJ [17] it was < 0.104 µM (active). Further, the figures for the EC50 with BJ [3], with BJ [6] and in the experiment on BJ [8] were 0.583 µM (inconclusive), 18 µM (active) and 0.46 µM (active), respectively. Besides, the IC50 in [18] is 0.58 µM (active).
For `COC(=O)C(/C=C/C(C)Cc1cc(Br)cc(OCc2ccccc2)c1OC)OCc1ccccc1` (configuration not stated), the AC50 on Cytochrome P450 3A4 and on Cytochrome P450 2C9 was 3.16 µM (inconclusive) throughout.
In the case of `c1ccc(-c2cnc(-c3ccccc3)nc2)cc1`, the EC50 was > 50 µM (not active) in the experiment with HT-1080 and 14.3 µM (active) in experiment [12].
As for `CCOc1ccc(OCc2cccc(C(=O)O)c2)cc1`, the AC50 in experiment [9] is 0.118 µM (active); in experiment [20] it was 21.4 µM (active); in experiment [10], 31 µM (active); in experiment [11], 21.7 µM (active); in [21] it was 16.9 µM (active); in experiment [13], 0.137 µM (active). Moreover, the AC50 in experiment [22] is 0.649 µM (active); in experiment [14], 18.9 µM (active). For the same molecule, the EC50 is < 0.16 µM (active) in experiment [19]; 0.101 µM (active) in “cells”; 0.038 µM (active) in experiment [15]; < 0.1 µM (active) in experiment [1]; 0.072 µM (active) in experiment [16]; > 133 µM (inactive) with BJ [17]. The EC50 in [4] and in experiment [5] was < 0.1 µM (active) each time. Besides, the IC50 at Leucine aminopeptidase was 24.8 µM (active).
